# From patent publication US10253255B2, “Phosphorescent nanoparticles and their uses in biosensing and bioimaging” (University of North Texas, priority 2015, dated 2019)
# Assays:
# SNU-5 cells = experiment: MTT cell viability (cytotoxicity); details: SNU-5 cell lines, buffered aqueous solution, FIG. 15
# Experimental: SNU-5 cells were purchased from ATCC (cat. # CRL-5973) (American Type Culture Collection, Manassas, Va.), and maintained in Iscove's Modified Dulbecco's Medium (IMDM) (ATCC, cat. #30-2005) with 10% FBS (Fisherbrand Research Grade Fetal Bovine Serum, cat. #03-600-511) (Fisher Scientific UK Ltd., Loughborough). Cells (10,000/well) were seeded on 96-well plates and the desired particle amounts were added to the wells. The plates were incubated for an additional 24 h at 37° C. (5% CO2). After incubation, cell viability was evaluated using MTT. MTT dissolved in culture media (5 mg/mL) was added to each well (25 L/well). The cells were incubated for 4 h at 37° C. (5% CO2) after which time 0.08 M HCl in 2-propanol (100 L/well) was added. Light absorption was measured on a Synergy 2 multi-mode microplate reader (BioTek, Winooski, Vt.). The viability of the cells exposed to particles was expressed as a percentage of the viability of cells grown in the absence of particles on the same plate.
# Cells were grown to ˜90% confluence in 96 well plate format in complete growth media containing 10% fetal bovine serum. PCHNPs or TPPTs in 0.1 wt % chitosan were dosed on cells at concentrations ranging from 0.5 to 200 μg/mL. Viability after 24 h of exposure was evaluated using MTT reagent and compared to healthy cells on the same plate. […]
# [1] = In vitro hypoxia detection by Pt—POP (epi-fluorescence microscope); details: Pt—POP aqueous solution in a Petri dish
# Text: For identification of hypoxic environments, Pt—POP has been used. The efficiency of Pt—POP as an oxygen sensor is shown in FIG. 16, including its effective usage for live bioimaging applications. […] The progressive phosphorescence intensity signal increase immediately after oxygen levels are decreased below 20% for the Pt—POP aqueous solution in a Petri dish should be noted. Results for this sensor in conjunction with the excellent animal model for hypoxia, C. elegans worms, are shown in FIG. 17, whereas similar results in E. coli bacteria and in D. rerio zebra fish are shown in FIGS. 18 and 19, respectively. In FIG. 18, conditions were: 18A: E. coli bacteria with 64X, DIC; 18B: E. coli bacteria with 64X, 405-520,222 g, 0.4 ms; 18C: E. coli bacteria incubated with Pt—POP 64X, 405-520,222 g, 0.4 ms; 18D: E. coli bacteria incubated with Pt—POP on 8th day 64X, 405-520,222 g, 0.4 ms. In FIG. 19, pictures were taken for stationary fish directly after injection (A) and 7 minutes after induced hypoxia (B), and for a swimming fish (C).
# [2] = molecular target: T1, Bovine Serum Albumin (BSA) (Bos taurus, UniProt P02769); experiment: Labelling of BSA with Pt—POP, absorbance after dialysis; format: binding; details: after 24 hours of dialysis
# T1 construct: purchased Sigma-Aldrich
# T1 sequence (P02769 25-607): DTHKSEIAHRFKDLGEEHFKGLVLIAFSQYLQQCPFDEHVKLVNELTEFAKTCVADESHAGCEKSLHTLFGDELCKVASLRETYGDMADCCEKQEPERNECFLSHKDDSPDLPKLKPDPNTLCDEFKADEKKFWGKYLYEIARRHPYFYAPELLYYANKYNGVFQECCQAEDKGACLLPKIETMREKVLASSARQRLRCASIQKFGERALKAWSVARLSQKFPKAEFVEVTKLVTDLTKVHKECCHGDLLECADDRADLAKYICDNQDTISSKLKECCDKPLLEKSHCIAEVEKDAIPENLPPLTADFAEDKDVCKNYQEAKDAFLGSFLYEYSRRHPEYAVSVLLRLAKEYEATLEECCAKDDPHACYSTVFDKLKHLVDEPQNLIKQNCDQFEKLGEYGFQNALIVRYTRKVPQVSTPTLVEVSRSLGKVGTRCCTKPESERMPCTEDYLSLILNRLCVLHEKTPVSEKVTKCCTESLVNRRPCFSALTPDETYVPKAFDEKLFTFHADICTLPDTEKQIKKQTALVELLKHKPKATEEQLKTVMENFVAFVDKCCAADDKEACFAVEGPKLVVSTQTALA
# Text: A common model protein (BSA=bovine serum albumin) was labeled with Pt—POP to enable BSA differentiation, with oxygen sensitivity, in biological media.
# [3] = Storage and solution stability
Molecule,biological toxicity (MTT assay) (SNU-5 cells),oxygen level below which phosphorescence intensity signal increases [1],absorbance of PBS control lower than BSA sample (binding to BSA) [2],stability in solution ([3]; in presence of a biocompatible polymer such as chitosan or PAN),stability in solution ([3]; without polymer)
"O=S(=O)([O-])c1cccc(P(c2cccc(S(=O)(=O)[O-])c2)c2cccc(S(=O)(=O)[O-])c2)c1.[Na+].[Na+].[Na+] [TPPTS, 3,3′,3″-Phosphanetriyltris(benzenesulfonic acid) trisodium salt, reference compound]",benign,–,–,–,–
M4[Pt2(P2O5H2)4].2H2O [Pt—POP],–,below 20%,approximately 10 times,dramatically enhanced from minutes to years,long-term instability
Na8[Au(TPPTS)3] [AuP],benign,–,–,–,–
